# Laboratory results taken from patent US20250073164A1, “IONIZABLE DISULFIDE LIPIDS AND LIPID NANOPARTICLES DERIVED THEREFROM” (PROVIDENCE THERAPEUTICS HOLDINGS INC., priority 2021, published 2025).
# Key:
# [1] = Lipids stability characterized by 1H NMR; format: physicochemical; set-up: key: +: the lipid is stable; Minor: the main characteristic peaks of the lipid are present, no major change of the ^1H NMR spectrum is observed, but some extra peaks appearance observed; Major: main the characteristic peaks of the lipid underwent transformation, some peaks can be missing or decreased in intensity, impurity peaks either increased in size or represent main peaks, as observed on ^1H NMR
# Procedure: The lipids stability was evaluated by ^1H NMR at −20° C. and at room temperature. “+” means the lipid is stable, “Minor” means the main characteristic peaks of the lipid are present, no major change of the ^1H NMR spectrum is observed, but some extra peaks appearance observed. “Major” means main the characteristic peaks of the lipid underwent transformation, some peaks can be missing or decreased in intensity, impurity peaks either increased in size or represent main peaks, as observed on ^1H NMR. “n.d.” means “not determined”.
# [2] = system: gp33 and gp34 specific T-cells; assay: In vivo activity of LNPs: specific CD8 T-cells expansion in mice; settings: LNPs prepared using the compound, payload 3-GP mRNA (epitopes encoding gp33/34)
# Procedure: LNPs prepared using compounds 100, 105, 106 and 109 respectively were evaluated for specific CD8 T-cells expansion in mice where the payload is 3-GP mRNA (comprising epitopes encoding gp33/34).
# [3] = Surface pKa of LNPs, TNS fluorescence assay; format: physicochemical; settings: LNPs formed with the ionizable lipid, pH at 50% LNP protonation
# Procedure: The surface pKa values of LNPs were determined as follows. Briefly, solutions of 100 mM citrate buffer at, 100 mM Tris-HCl and 50 mM sodium bicarbonate-sodium hydroxide buffer were titrated to pH values varying by 1 from 3.0 to 11.0 and aliquoted into a clear 96-well plate. LNPs and 2-(p-toluidinyl)naphthalene-6-sulfonic acid (TNS) were diluted into these solutions to obtain a final concentration of 20 μM lipid and 6 μM TNS, respectively. Fluorescence intensity was read on a Glowmax discover plate reader at an excitation of 322 nm and an emission of 430 nm. pKa values were calculated as the pH corresponding to 50% LNP protonation, assuming minimum and maximum fluorescence values corresponded to zero and 100% protonation, respectively.
"Lipids stability characterized by 1H NMR, Room Temperature 1 week ([1]; room temperature)","Lipids stability characterized by 1H NMR, Room Temperature 2 months ([1]; room temperature)","Lipids stability characterized by 1H NMR, Room Temperature 2 weeks ([1]; room temperature)","Lipids stability characterized by 1H NMR, Room Temperature 3 months ([1]; room temperature, 3 months)","Lipids stability characterized by 1H NMR, Room Temperature 3 weeks ([1]; room temperature)","Lipids stability characterized by 1H NMR, Room Temperature 4 weeks ([1]; room temperature)","Lipids stability characterized by 1H NMR, At −20° C. ([1]; 3 months)",Surface pKa [3],Structure (SMILES),specific CD8 T-cells expansion [2]
+,Major,Minor,Major,Minor,Minor,+,7.5,CCCCCCCCCCCCCCC(/C=C(\C)CCC=C(C)C)OC(=O)CSSCC(=O)OCCCN(C)C (centres unmarked) [Compound 100],effective at expanding both gp33 and gp34 specific T-cells
+,+,+,–,+,+,+,7.0,"CCCCC/C=C\CCC(CCCCCCCCCCCCCC)C(CCCCCCCCCCCCCC)OC(=O)CCSSCCC(=O)OCCCN(C)C (centres unmarked) [Compound 109, 3-(dimethylamino)propyl-3-[[3-[2-[(Z)-non-3-enyl]-1-tetradecyl-hexadeoxy]-3-oxo-propyl]disulfanyl]propanoate]",effective at expanding both gp33 and gp34 specific T-cells
